The record followed here is patent publication US6620397B2, “Material and method for treating photographic effluents” (Eastman Kodak Company, priority 2001, dated 2003).

The assay is described as follows: Oxidation of cyclohexene to cyclohexanol followed by FT Raman spectroscopy. The procedure:
When no imogolite was present in the test the volume of imogolite was replaced by an equivalent volume of water so as to retain a constant volume. The oxidation of the cyclohexene was followed by FT (Fourier transform) Raman spectroscopy by measuring the percentage of cyclohexene converted to cyclohexanol after 48 hours. The tests were carried out at ambient temperature.

With `OO` [Example 13, hydrogen peroxide], the “Cyclohexene oxidized after 48 h (%)” value (5 g material, 20 ml cyclohexene in 80 ml methanol, ambient temperature, 48 hours) is 3%. Besides, the “Oxidizing property towards cyclohexene (in words)” value (summary of Table I) is “weak oxidizing agent”.
